Where “and” joins values, the source holds several entries; their conditions need not be identical. Equal entries are not always repeated. Where two headings read alike, the source gives them in different places.
Assay: in vivo
Set-up: species or system female C3H/HeN mice
Conditions: mouse, 40 mg.kg^-1 i.v.; for AUC0-∞: mean level data
Experimental: Groups of female C3H/HeN mice received the product by the intravenous route as a bolus at a dose level of 40 mg.kg^-1 equivalent to 120 mg.m^-2. Blood and brain samples were obtained from all dosed animals sacrificed at intervals up to 72 hours post dose. Brain and corresponding plasma samples have been assayed for product Ia content by an LC-MS/MS assay.
• Formulation: 2.25 mg.ml^-1 solution containing 5 % Polysorbate 80, 5 % ethanol and 90 % of an aqueous 5 % glucose solution. […]
• Sampling : Blood by cardiac puncture and liver and brain by dissection after CO2 sacrifice • Sample Times : at 2, 5, 15, 30, 45 minutes, 1, 2, 4, 6, 8, 14, 24, 48 and 72 hours post dose.
Whole blood was collected into heparinised tubes and corresponding plasma samples were obtained by centrifugation and frozen immediately at -20°C. Tissues were blotted, weighed and frozen immediately at -20°C. All samples were dispatched frozen for analysis. Upon receipt, samples were stored frozen at approximately -18°C pending analysis.
• Detection: LC-MS/MS (Sciex API III plus) in turbo-ionspray mode
The following MS conditions were applied:
Column: 75 x 4.6 mm Supelcosil ABZ plus (3 µm). Mobile phase: Acetonitrile/methanol/ammonium acetate (10mM); 40/25/35 v/v/v. Flow rate : 1 ml.min^-1. Temperature : Ambient. Extraction : Plasma: Add 100 µl of acetonitrile to sample (50 µl). Vortex, centrifuge, remove supernatant, add 100 µl of mobile phase and inject 150 µl. Brain : Add 100 µl of acetonitrile to homogenised sample (100 mg of a 1:1 w/w brain with water homogenate) and vortex. Add 1ml of diethyl ether, vortex, centrifuge, remove organic layer and dry under N2. Reconstitute in 200 µl of mobile phase and inject 150 µl. Calibration standards: Plasma : Nine at concentrations of 5, 10, 20, 50, 100, 200, 300, 400 & 500 ng.ml^-1 (product Ia). Prepared by adding suitable aliquots of the product (concentrations = 0.1, 1 or 10 µg.ml^-1) in ethanol to 0.5 ml aliquots of mouse plasma. Each sample was vortexed following drug addition; a 50 µl aliquot was then removed for assay. Brain : Eleven at concentrations of 10, 20, 30, 100, 200, 300, 400, 500, 1000, 2500 & 5000 ng.g^-1 in homogenised mouse brain (1:1 w/w brain with water). Prepared by adding suitable aliquots of the product (concentrations = 1, 10 or 100 µg.ml^-1) in ethanol to 0.5, 1, 3 or 4 g of homogenised mouse brain. Each sample was vortexed following drug addition and a 100 mg aliquot was then removed for assay. Retention times: Drug; product Ia: ∼2.3 min. Extraction efficiency : Plasma : ca.58 % at 200 ng.ml^-1. Brain : ca.41 % at 500 ng.g^-1 and 39 % at 1000 ng.g^-1.
A biexponential equation was fitted to the profiles using an interactive linear least-square algorithm as part of the SIPHAR package.
AUC0-∞: Area under the plasma or brain concentration versus time curve from t=0 (start of infusion) to infinity. Initial T1/2: Initial (distribution) half-life. Terminal T1/2: Terminal (elimination) half-life (should be regarded as an estimate only being dependent on sampling frequency in the terminal phase and assay sensitivity). ClT: Total plasma clearance. Vdss: Volume of distribution at steady state. n.a.: Not applicable.

## CO[C@H]1C(=O)[C@]2(C)[C@@H](OC)C[C@H]3OC[C@@]3(OC(C)=O)[C@H]2[C@H](OC(=O)c2ccccc2)[C@]2(O)C[C@H](OC(=O)[C@H](O)[C@@H](NC(=O)OC(C)(C)C)c3ccccc3)C(C)=C1C2(C)C [product Ia, 4α-acetoxy-2α-benzoyloxy-5β,20-epoxy-1β-hydroxy-7β,10β-dimethoxy-9-oxo-11-taxen-13α-yl (2R,3S)-3 tert-butoxycarbonylamino-2-hydroxy-3-phenylpropionate]
Brain, extrapolated from 72h to infinity
  AUC0-∞: 788 h.µg.g^-1 and 787.8* h.µg.g^-1
Plasma#, calculated from values ≥ b.l.q. of 20 ng.ml^-1
  ClT: 21.7 mL/min/kg
Plasma+, calculated from values ≥ l.o.d. of 4 ng.ml^-1
  ClT: 21.7 mL/min/kg
Plasma+, calculated from values ≥ l.o.d. of 4 ng.ml^-1, listed as product Ic, 40 mg/kg
  AUC0-∞: 30.0 µg·h/mL
brain, iv, at 14h, read-out: brain peak levels
  Cmax at 14 h: 9100 ng/g
iv, Brain, read-out: Terminal T1/2 (converted)
  half-life: 31.4 h
iv, Plasma+, calculated from values ≥ l.o.d. of 4 ng.ml^-1, read-out: ClT (converted)
  clearance: 21.7 mL/min/kg
Limit 4 ng.ml^-1
  time post dose up to which plasma levels were consistently above the limit of detection: up to 24 h
Limit 20 ng.ml^-1
  time post dose up to which plasma levels persisted above the limit of accurate quantification: up to 14 h
2 min after dose, individual animals IV1-IV4, 40 mg/kg, 2 min
  Plasma product Ic concentration: 45942 ng/mL and 49607 ng/mL and 38994 ng/mL
2 min after dose, individual animals IV1-IV4, listed as product Ic, 40 mg/kg, 2 min
  Brain product Ic concentration: 8817 ng/g and 8147 ng/g and 7630 ng/g
5 min after dose, individual animals IV1-IV4, 40 mg/kg, 5 min
  Plasma product Ic concentration: 33538 ng/mL and 32077 ng/mL and 34903 ng/mL
5 min after dose, individual animals IV1-IV4, listed as product Ic, 40 mg/kg, 5 min
  Brain product Ic concentration: 8473 ng/g and 7762 ng/g and 8091 ng/g
15 min after dose, individual animals IV1-IV4, 40 mg/kg, 15 min
  Plasma product Ic concentration: 20897 ng/mL and 21051 ng/mL and 19459 ng/mL
15 min after dose, individual animals IV1-IV4, listed as product Ic, 40 mg/kg, 15 min
  Brain product Ic concentration: 7100 ng/g and 7641 ng/g and 6481 ng/g
0.5h after dose, individual animals IV1-IV4, 40 mg/kg, 30 min
  Plasma product Ic concentration: 10344 ng/mL and 9170 ng/mL and 11232 ng/mL
0.5h after dose, individual animals IV1-IV4, listed as product Ic, 40 mg/kg, 30 min
  Brain product Ic concentration: 6788 ng/g and 8317 ng/g and 6894 ng/g
0.75h after dose, individual animals IV1-IV4, 40 mg/kg, 45 min
  Plasma product Ic concentration: 10948 ng/mL and 8121 ng/mL and 10148 ng/mL
0.75h after dose, individual animals IV1-IV4, listed as product Ic, 40 mg/kg, 45 min
  Brain product Ic concentration: 8086 ng/g and 7513 ng/g and 7272 ng/g
1h after dose, individual animals IV1-IV4, 40 mg/kg, 60 min
  Plasma product Ic concentration: 7423 ng/mL and 6693 ng/mL and 6079 ng/mL
1h after dose, individual animals IV1-IV4, listed as product Ic, 40 mg/kg, 60 min
  Brain product Ic concentration: 6424 ng/g and 8964 ng/g and 1747 ng/g and 7489 ng/g
2h after dose, individual animals IV1-IV4, listed as product Ic, 40 mg/kg, 120 min
  Brain product Ic concentration: 8418 ng/g and 6966 ng/g and 7017 ng/g
4h after dose, individual animals IV1-IV4, 40 mg/kg, 240 min
  Plasma product Ic concentration: 1110 ng/mL and 835 ng/mL and 830 ng/mL
4h after dose, individual animals IV1-IV4, listed as product Ic, 40 mg/kg, 240 min
  Brain product Ic concentration: 6939 ng/g and 6712 ng/g and 5459 ng/g
6h after dose, individual animals IV1-IV4, 40 mg/kg, 360 min
  Plasma product Ic concentration: 316 ng/mL and 346 ng/mL and 336 ng/mL
6h after dose, individual animals IV1-IV4, listed as product Ic, 40 mg/kg, 360 min
  Brain product Ic concentration: 6688 ng/g and 7968 ng/g and 7350 ng/g and 3712 ng/g
8h after dose, individual animals IV1-IV4, 40 mg/kg, 480 min
  Plasma product Ic concentration: 199 ng/mL and 195 ng/mL and 154 ng/mL
8h after dose, individual animals IV1-IV4, listed as product Ic, 40 mg/kg, 480 min
  Brain product Ic concentration: 6977 ng/g and 8616 ng/g and 8342 ng/g
14h after dose, individual animals IV1-IV4, 40 mg/kg, 840 min
  Plasma product Ic concentration: 56 ng/mL and 50 ng/mL and 52 ng/mL
14h after dose, individual animals IV1-IV4, listed as product Ic, 40 mg/kg, 840 min
  Brain product Ic concentration: 10049 ng/g and 7595 ng/g and 9271 ng/g
24 h after dose, individual animals IV1-IV4, listed as product Ic, 40 mg/kg, 1440 min
  Brain product Ic concentration: 9842 ng/g and 7885 ng/g and 9052 ng/g
24 h after dose, individual animals IV1-IV4, values flagged blq (below limit of accurate quantification, 20 ng.ml^-1), 40 mg/kg, 1440 min
  Plasma product Ic concentration: 15(blq) ng.ml^-1 (2×) and 16(blq) ng.ml^-1
48 h after dose, individual animals IV1-IV4, blq = below 20 ng.ml^-1, n.d. = not detected (≤ l.o.d. of 4 ng.ml^-1)
  Plasma product Ic concentration: 4(blq) ng.ml^-1
48 h after dose, individual animals IV1-IV4, listed as product Ic, 40 mg/kg, 2880 min
  Brain product Ic concentration: 8541 ng/g and 7704 ng/g and 7986 ng/g
72 h after dose, individual animals IV1-IV4, listed as product Ic, 40 mg/kg, 4320 min
  Brain product Ic concentration: 5511 ng/g and 5692 ng/g and 3894 ng/g
Time after dose printed as '-' (line between 1h and 4h), MEAN
  Plasma product Ic concentration: 4283 ng/mL
Time after dose printed as '-' (line between 1h and 4h), individual animals IV1-IV4, 40 mg/kg
  Plasma product Ic concentration: 4633 ng/mL and 4337 ng/mL and 4600 ng/mL and 3564 ng/mL
brain, iv, 40 mg/kg, 2 min after dose, MEAN, read-out: Brain product Ic concentration
  concentration at 2 min: 7890 ng/g
brain, iv, 40 mg/kg, 2 min after dose, individual animals IV1-IV4, read-out: Brain product Ic concentration
  concentration at 2 min: 6960 ng/g
brain, iv, 40 mg/kg, 5 min after dose, MEAN, read-out: Brain product Ic concentration
  concentration at 5 min: 8170 ng/g
brain, iv, 40 mg/kg, 5 min after dose, individual animals IV1-IV4, read-out: Brain product Ic concentration
  concentration at 5 min: 8340 ng/g
brain, iv, 40 mg/kg, 15 min after dose, MEAN, read-out: Brain product Ic concentration
  concentration at 0.25 h: 6760 ng/g
brain, iv, 40 mg/kg, 15 min after dose, individual animals IV1-IV4, read-out: Brain product Ic concentration
  concentration at 0.25 h: 5810 ng/g
brain, iv, 40 mg/kg, 0.5h after dose, MEAN, read-out: Brain product Ic concentration
  concentration at 0.5 h: 7320 ng/g
brain, iv, 40 mg/kg, 0.5h after dose, individual animals IV1-IV4, read-out: Brain product Ic concentration
  concentration at 0.5 h: 7260 ng/g
brain, iv, 40 mg/kg, 0.75h after dose, MEAN, read-out: Brain product Ic concentration
  concentration at 0.75 h: 7640 ng/g
brain, iv, 40 mg/kg, 0.75h after dose, individual animals IV1-IV4, read-out: Brain product Ic concentration
  concentration at 0.75 h: 7680 ng/g
brain, iv, 40 mg/kg, 1h after dose, MEAN, read-out: Brain product Ic concentration
  concentration at 1 h: 6160 ng/g
brain, iv, 40 mg/kg, 2h after dose, MEAN, read-out: Brain product Ic concentration
  concentration at 2 h: 7590 ng/g
brain, iv, 40 mg/kg, 2h after dose, individual animals IV1-IV4, read-out: Brain product Ic concentration
  concentration at 2 h: 7960 ng/g
brain, iv, 40 mg/kg, 4h after dose, MEAN, read-out: Brain product Ic concentration
  concentration at 4 h: 6760 ng/g
